Laboratory results as given in patent EP0121856A2, “Use of pyrazolone derivatives against the growth of tumour cells and their metastases, medicaments therefor and their preparation” (BAYER AG, priority 1983, dated 1984).

Key:
[1] = antithrombotic effect (thrombosis prophylaxis) compared with Nafazatrom; format: in vivo; details: for antithrombotischer Effekt: at 100-fold dose increase compared with Nafazatrom
[2] = tested on: B-16a Tumorzellen; test: partial metastasis model: tail vein injection of B-16a tumour cells, oral pretreatment for three days (Beispiel 1); format: in vivo, C57BL/6J-Mäuse; details: 3 days before tail vein injection; for Metastasenpunkte: lungs 24 days after injection, score 1-10, mean ± S, n = 10; for Metastasenindex: treated group points / control group points
Experimental: Es wurden dieselben Tumor-Zellinien wie in EP-A 0 062 319 verwendet und auf die gleiche Weise in vivo gehalten. ;
Tumorzellen wurden dann aseptisch aus den Wirtsmäusen entnommen und unter Anwendung sequenzieller Collagenase-Verdauung dispergiert, wie unten beschrieben. Die entnommenen Tumoren wurden in Würfel (4 x 4 mm) zerteilt, und das gewürfelte Gewebe wurde auf 6 bis 8 sterile Polycarbonat-Erlenmeyerkolben aufgeteilt (etwa 500 mg/Kolben). Ein Anteil von 10 ml einer "Tumordispersionslösung" (TDS) wurde in jeden Kolben hinzugefügt.
Das gewürfelte Gewebe in der TDS wurde dann unter Luft in einem Dubnoff-Stoffwechsel-Schüttler (90 Schwingungen/min) dispergiert (30 min; 37°C). Die überstände wurden durch ein Seihtuch in sterile 50 ml-Rundboden-Zentrifugenröhrchen auf Polycarbonat gesammelt und 10 min (25°C) mit 900 U/min(100 g) in einem Sorvall SS-34 -Rotor zentrifugiert. Nach dem Zentrifugieren wurde die überstehende Fraktion verworfen. Das erhaltene zelluläre Material (Pellets) wurde zweimal mit MEM-Lösung gewaschen, wieder in MEM suspendiert und bei 4°C gehalten.
Zu dem verbleibenden gewürfelten Gewebe wurde ein Anteil von 10 ml TDS hinzugefügt, und das Gewebe wurde in einem Stoffwechselschüttler inkubiert, wie oben beschrieben, außer daß die Zeitdauer 60 min betrug. Das Zentrifugieren wurde wiederholt, und die wieder suspendierten Zellen wurden vereinigt.
(§1) Wie bereits weiter oben festgestellt wurde, ist die Metastase eine einzelne Erscheinung, die durch eine Reihe komplizierter Vorgänge verursacht wird. Gegenwärtig finden zwei "Modell"-Systeme für die Untersuchung der in vivo-Metastase verbreitete Anwendung. Das erste Modellsystem umfaßt die subkutante Injektion der Tumorzellen in das Tier. Die subkutante Injektion der Tumorzellen und anschließende Entwicklung eines Primärtumors, gefolgt von spontaner Metastase, wird als "volle" Metastase betrachtet. Ein anderes Modellsystem umfaßt die Injektion der Tumorzellen durch die Schwanzvene. In Anbetracht der Komplexität der Metastase gilt die Schwanzvenen-Injektion nur als partielles Modellsystem, da es nur die Vorgänge während des letzten Teils der Metastase wiedergibt. Das Schwanzvenen-Modellsystem gilt jedoch andererseits als außerordentlich günstig im Hinblick auf eine Standardisierung der Versuchsbedindungen Lvgl. "Methods in Cancer Research", Kapitel VII, Academic Press, Inc., 19787.
5 mg des jeweiligen Pyrazolonderivats wurden in 0,5 % Tylose aufgenommen und dann durch Behandlung mit Ultraschall (30 sec) gelöst. Die endgültige Konzentration der Substanzen wurde durch Verdünnung der Lösungen mit 0,5 % Tylose eingestellt.
(§2) Syngeneische C57BL/6J-Mäuse wurden während eines Zeitraumes von drei Tagen mit 0,005 mg/kg bis 5 mg/kg der beiden Substanzen in 0,2 ml 0,5 % Tylose peroral behandelt. Kontrolltiere erhielten täglich 0,2 ml 0,5 % Tylose. Am vierten Tag wurde den vorbehandelten Mäusen und Kontrollmäusen ein Suspension von 5 x 10^4 B-16a Tumorzellen über die Schwanzvene injiziert. Die Kontrollmäuse und die behandelten Mäuse wurden unter identischen Bedingungen der Temperatur, Lichteinwirkungsdauer, Ernährung etc. gehalten. Die Mäuse wurden 24 Tage nach erfolgter Schwanzvenen-Injektion getötet, und ihre Lungengewebe wurden untersucht. Der Grad der Metastasierung wurde nach Zahl und Größe der makroskopisch sichtbaren Metastasen mit Punktzahlen von 1 - 10 bewertet, welche die Relation zwischen Metastasenbedeckter und - freier Organfläche ausdrücken. Dabei werden die Punktzahlen nach folgenden Rahmenkriterien vergeben: 1 = 1 - 2 gerade erkennbare Metastasen, 5 = etwa 50 % der Organoberfläche ist von Metastasen bedeckt, 10 = fast keine normale Organoberfläche sichtbar.

[3] = tested on: B-16a-Zellen; test: full metastasis model: subcutaneous injection of B-16a cells, oral treatment for 27 days, metastatic lung nodules (Beispiel 4); format: in vivo, C57BL/6J-Mäuse; details: for Metastasenpunkte: lungs at 28 days; for Metastasenindex: treated / control points
Excerpt: as §1
Die Wirkung der Verabreichung der Pyrazolon-Verbindungen über einen längeren Zeitraum hinweg auf die Zahl der'metastatischen Lungen-Kolonien des B-16a Melanoms wurde wie nachstehend für Verbindung A beschrieben bestimmt.
10 mg Verbindung A wurden in 0,5 % Tylose aufgenommen und dann durch Behandlung mit Ultraschall (30 sec) gelöst. Die endgültige Konzentration der Substanz wurde durch Verdünnung der Lösung mit 0,5 % Tylose eingestellt. Die Substanz wurde jeden Tag neu gelöst.
Syngeneische C57BL/6J-Mäusen wurde eine Suspension von 1,0 x 10^5 B-16a-Zellen subkutan injiziert, die wie vorstehend beschrieben hergestellt wurde. Vom Tage nach der Tumorzell-Injektion ab erhielten die Mäuse 27 Tage peroral eine tägliche Einzeldosis von 0 bis 100 mg/kg der Pyrazolon-Verbindung. Die Kontroll-Mäuse und die behandelten Mäuse wurden unter identischen Bedingungen der Temperatur, Lichteinwirkungsdauer, Ernährung etc. gehalten. Die Mäuse wurden nach 28 Tagen getötet und die Zahl und Größe der metastatischen Knötchen in der Lunge bestimmt.

[4] = tested on: B-16a Tumorzellen; test: partial metastasis model: tail vein injection of B-16a tumour cells, oral treatment 3 days before and 2 days after tumour injection (Beispiel 2 and 3); format: in vivo, C57BL/6J-Mäuse; details: for Metastasenpunkte: score 1-10, mean ± S, n = 10; for Metastasenindex: treated / control points
Experimental: as §2
5 mg des jeweiligen Pyrazolonderivats wurden in 0,5 % Ty-lose aufgenommen und dann durch Behandlung mit Ultraschall (30 sec) gelöst. Die endgültige Konzentration der Substanzen wurde durch Verdünnung der Lösungen mit 0,5 % Tylose eingestellt.
(§3) Syngeneische C57BL/6J-Mäuse wurden während eines Zeitraumes von drei Tagen vor der Tumorinjektion und 2 Tagen nach der Tumorinjektion täglich mit 0,005 mg/kg bis 5 mg/kg der beiden Substanzen in 0,2 ml 0,5 % Tylose peroral behandelt. Kontrolltiere erhielten 0,2 ml 0,5 % Tylose. Am vierten Tag wurde den. vorbehandelten Mäusen und Kontrollmäusen eine Suspension von 5 x 10^4 B-16a Tumorzellen über die Schwanzvene injiziert.
20 mg des jeweiligen Pyrazolonderivats wurden in 0,5 % Tylose aufgenommen und dann durch Behandlung mit Ultraschall (30 sec) gelöst. Die endgültige Konzentration der Substanzen wurde durch Verdünnung der Lösungen mit 0,5 % Tylose eingestellt.
as §3, with “Syngeneische Tiere” for “Syngeneische C57BL/6J-Mäuse”, “mit 2 mg” for “mit 0,005 mg/kg”, “bis 200” for “bis 5”, “der” for “der beiden”, “wurde den” for “wurde den.”, “und Kontrolltieren” for “und Kontrollmäusen”

[5] = 0,5 mg/kg peroral daily for 27 days after s.c. tumour cell injection
[6] = 5 mg/kg peroral daily for 27 days after s.c. tumour cell injection
[7] = 25 mg/kg peroral daily for 27 days after s.c. tumour cell injection
[8] = 50 mg/kg peroral daily for 27 days after s.c. tumour cell injection
[9] = 75 mg/kg peroral daily for 27 days after s.c. tumour cell injection
[10] = 100 mg/kg peroral daily for 27 days after s.c. tumour cell injection

CC1=NN(CCOc2ccc3ccccc3c2)C(=O)C1C (stereo not shown) [3,4-Dimethyl-Derivat]
antithrombotischer Effekt [1]: kein antithrombotischer Effekt feststellbar

O=C1CC(Cc2ccccc2)=NN1CCOc1ccc2ccccc2c1 [3-Benzyl-]
antithrombotischer Effekt [1]: kein antithrombotischer Effekt feststellbar

CC(C)C1=NN(CCOc2ccc3ccccc3c2)C(=O)C1 [3-Isopropyl-]
antithrombotischer Effekt [1]: kein antithrombotischer Effekt feststellbar

CCCC1=NN(CCOc2ccc3ccccc3c2)C(=O)C1 [3-n-Propyl-]
antithrombotischer Effekt [1]: kein antithrombotischer Effekt feststellbar

CCC1=NN(CCOc2ccc3ccccc3c2)C(=O)C1 [Ethyl in der 3-Position des Nafazatroms]
Wirkung bei der Thromboseprophylaxe ([1]; fraction of the effect of Nafazatrom): 1/30

CC1=NN(CCOc2ccc3ccccc3c2)C(=O)C1C (stereo not shown) [Verbindung A]
Metastasenpunkte ([2]; 0,05 mg/kg peroral): 5,3±1,5
Metastasenpunkte ([2]; 0,5 mg/kg peroral): 4,1±1,4
Metastasenindex ([2]; 0,05 mg/kg peroral): 0,76
Metastasenindex ([2]; 0,5 mg/kg peroral): 0,59
Metastasenpunkte ([2]; 0,005 mg/kg peroral): 2,6±1,1
Metastasenpunkte ([2]; 5 mg/kg peroral): 2,3±1,2
Metastasenindex ([2]; 0,005 mg/kg peroral): 0,37
Metastasenindex ([2]; 5 mg/kg peroral): 0,33
Metastasenpunkte [3, 5]: 2,9±2,6
Metastasenindex [3, 5]: 0,66
Metastasenpunkte [3, 6]: 2,7±2,0
Metastasenindex [3, 6]: 0,61
Metastasenpunkte [3, 7]: 2,2±1,6
Metastasenindex [3, 7]: 0,50
Metastasenpunkte [3, 8]: 2,1±1,5
Metastasenindex [3, 8]: 0,48
Metastasenpunkte [3, 9]: 1,3±1,4
Metastasenindex [3, 9]: 0,30
Metastasenpunkte [3, 10]: 2,8±1,7
Metastasenindex [3, 10]: 0,64

CC1=NN(CCOc2ccc3ccccc3c2)C(=O)C1(C)C [Verbindung B]
Metastasenpunkte ([2]; 0,05 mg/kg peroral): 4,2±2,6
Metastasenpunkte ([2]; 0,5 mg/kg peroral): 2,6±0,8
Metastasenindex ([2]; 0,05 mg/kg peroral): 0,60
Metastasenindex ([2]; 0,5 mg/kg peroral): 0,37
Metastasenpunkte ([2]; 0,005 mg/kg peroral): 4,9±2,2
Metastasenpunkte ([2]; 5 mg/kg peroral): 4,5±2,3
Metastasenindex ([2]; 0,005 mg/kg peroral): 0.70
Metastasenindex ([2]; 5 mg/kg peroral): 0,64

CC1=NN(Cc2ccoc2)C(=O)C1 [Verbindung C]
Metastasenpunkte ([4]; 0,05 mg/kg peroral daily): 4,3±1,7
Metastasenpunkte ([4]; 0,5 mg/kg peroral daily): 4,7±2,1
Metastasenindex ([4]; 0,05 mg/kg peroral daily): 0,72
Metastasenindex ([4]; 0,5 mg/kg peroral daily): 0,78
Metastasenpunkte ([4]; 0,005 mg/kg peroral daily): 5,2±2,0
Metastasenpunkte ([4]; 5 mg/kg peroral daily): 5,3±2,0
Metastasenindex ([4]; 0,005 mg/kg peroral daily): 0,87
Metastasenindex ([4]; 5 mg/kg peroral daily): 0,88

CC1=NN(C(C)c2ccsc2)C(=O)C1 (stereo not shown) [Verbindung D]
Metastasenpunkte ([4]; 0,05 mg/kg peroral daily): 3,8±1,8
Metastasenpunkte ([4]; 0,5 mg/kg peroral daily): 3,6±1,7
Metastasenindex ([4]; 0,05 mg/kg peroral daily): 0,63
Metastasenindex ([4]; 0,5 mg/kg peroral daily): 0,60
Metastasenpunkte ([4]; 0,005 mg/kg peroral daily): 4,7±1,9
Metastasenpunkte ([4]; 5 mg/kg peroral daily): 3,8±1,4
Metastasenindex ([4]; 0,005 mg/kg peroral daily): 0,78
Metastasenindex ([4]; 5 mg/kg peroral daily): 0,63

COc1cc(N2N=C(N)CC2=O)ccc1C [Verbindung E]
Metastasenpunkte ([4]; 2 mg/kg peroral daily): 2,7±1,7
Metastasenindex ([4]; 2 mg/kg peroral daily): 0,66
Metastasenpunkte ([4]; 20 mg/kg peroral daily): 2,5±1,0
Metastasenindex ([4]; 20 mg/kg peroral daily): 0,61
Metastasenpunkte ([4]; 200mg/kg peroral daily): 2,7±1,5
Metastasenindex ([4]; 200mg/kg peroral daily): 0,66

CCCCCCCCCCCCCCCCCC1=NN(c2ccc(Oc3ccccc3)c(S(=O)(=O)O)c2)C(=O)C1 [Verbindung F]
Metastasenpunkte ([4]; 2 mg/kg peroral daily): 2,8±1,0
Metastasenindex ([4]; 2 mg/kg peroral daily): 0,68
Metastasenpunkte ([4]; 20 mg/kg peroral daily): 3,0±1,1
Metastasenindex ([4]; 20 mg/kg peroral daily): 0,73
Metastasenpunkte ([4]; 200mg/kg peroral daily): 2,6±1,0
Metastasenindex ([4]; 200mg/kg peroral daily): 0,63
